In EPA's ToxValDB 9.5 (doi:10.2903/j.efsa.2016.4432):

Assays:
Daphnia magna = details: chronic/long-term; duration: 21 days; mortality
Folsomia candida = details: chronic/long-term; mortality
Tagia sp. = details: chronic/long-term; growth
Anas platyrhynchos = details: short-term; oral; feed; mortality
Rattus norvegicus = details: acute; oral; mortality
Apis mellifera = details: acute, mortality
Mus musculus = details: acute; mortality
Oryctolagus sp. = details: developmental; development
Typhlodromus pyri = assay: LR50; higher = less toxic; details: not reported; mortality

## COCc1cnc(C2=NC(C)(C(C)C)C(=O)N2)c(C(=O)O)c1 (centres undefined) [Imazamox]
Cyprinodon variegatus; acute, duration: 96 hours, mortality
  LC50: > 97 µg/mL
Cyprinodon variegatus; chronic/long-term, duration: 35 days, other
  NOEC: 1.22 mg/L
Daphnia magna
  NOEC: 137 mg/L
Folsomia candida
  NOEC: 3.36 mg/kg
Tagia sp.
  NOEC: 5.85 mg/kg
Anas platyrhynchos
  LD50: > 1930 mg/kg-day
Rattus norvegicus
  LD50: > 5000 mg/kg-day
Apis mellifera; dermal
  LD50: > 58 µg/piece
Apis mellifera; oral, unspecified
  LD50: > 40 µg/piece
Mus musculus
  LD50: > 5000 mg/kg-day
Oryctolagus sp.
  NOAEL: 300 mg/kg-day
Colinus virginianus; acute, oral, mortality
  LD50: 3490 mg/kg-day
Colinus virginianus; reproduction developmental
  NOAEL: 209 mg/kg-day
Typhlodromus pyri
  LR50: 1340 mL/ha
